Experimental findings from ChEMBL document CHEMBL4138206, “Acovenoside A Induces Mitotic Catastrophe Followed by Apoptosis in Non-Small-Cell Lung Cancer Cells” (J Nat Prod, 2017) are described below.

For series [1], the system named is A549. The experiment in a line: Induction of mitochondrial dysfunction in human A549 cells assessed as cell population with mitochondrial potential loss at 100 nM after 48 hrs by JC-1 staining based flow cytometry (reference value: 7%). The class given is functional. (In general: A flow cytometer gives signals particle by particle.)
Series [2] relates to A549. The series can be described thus: Induction of mitochondrial dysfunction in human A549 cells assessed as cell population with intact mitochondrial potential at 100 nM after 48 hrs by JC-1 staining based flow cytometry (reference value: 7%). The class given is functional.
Series [3] deals with A549. The experiment in a line: Induction of apoptosis in human A549 cells assessed as hypodiploid DNA content at 10 nM after 72 hrs by propidium iodide staining flow cytometry (reference value: 3 to 4%). The class given is functional.
The test system of series [4] is A549. The series can be described thus: Induction of intracellular ROS production in human A549 cells at 100 nM after 48 hrs by H2DCFDA staining based flow cytometry relative to control. The series is classed as functional.
The test system of series [5] is A549. The experiment in a line: Cytotoxicity against human A549 cells assessed as reduction in cell viability pretreated with ROS scavenger ebselen for 1 hr followed by compound addition measured after 24 hrs by XTT assay. The series is classed as functional, cell-based. In general terms: Tetrazolium dyes change colour on reduction, which living cells bring about.

The subject of series [6] is A549. The series can be described thus: Cell cycle arrest in human A549 cells assessed as accumulation at G2/M phase at 100 nM after 24 hrs by propidium iodide staining based flow cytometry (reference value: 18%). The class given is functional.
The subject of series [7] is A549. The series can be described thus: Induction of apoptosis in human A549 cells assessed as activation of caspase 3/7 at 100 nM after 48 hrs using Z-DEVD-R110 as substrate by flow cytometry (reference value: 9%). The class given is functional.
Another series concerns MRC5. The experiment in a line: Cytotoxicity against human MRC5 cells assessed as reduction in cell viability after 24 hrs by XTT assay. The class given is cell-based. Conditions: MRC5, 24 h.
The test system of series [8] is A549. The experiment in a line: Cytotoxicity against human A549 cells assessed as reduction in cell viability after 48 hrs by XTT assay. The series is classed as functional, cell-based. To be noted: A549, 48 h.
For series [9], the system named is A549. The experiment in a line: Cytotoxicity against human A549 cells assessed as reduction in cell viability pretreated with ROS scavenger edaravone for 1 hr followed by compound addition measured after 24 hrs by XTT assay. The class given is functional, cell-based.
In series [10] the test system is A549. The experiment in a line: Cytotoxicity against human A549 cells assessed as reduction in cell viability after 24 hrs by XTT assay. The series is classed as functional, cell-based. To be noted: A549, 24 h.
For series [11], the system named is CAL-12T. The experiment in a line: Cell cycle arrest in human CAL-12T cells at 50 to 100 nM after 24 hrs by propidium iodide staining based flow cytometry. The series is classed as functional.
Series [12] has as its system MDA-MB-231. The experiment in a line: Cytotoxicity against human MDA-MB-231 cells assessed as reduction in cell viability after 48 hrs by XTT assay. The class given is functional, cell-based. To be noted: MDA-MB-231, 48 h.
The subject of series [13] is MDA-MB-231. The experiment in a line: Cytotoxicity against human MDA-MB-231 cells assessed as reduction in cell viability after 24 hrs by XTT assay. The class given is functional, cell-based. To be noted: MDA-MB-231, 24 h.
Series [14] relates to A549. The series can be described thus: Cytotoxicity against human A549 cells assessed as reduction in cell viability pretreated with ROS scavenger tempol for 1 hr followed by compound addition measured after 24 hrs by XTT assay. The class given is functional, cell-based.
Series [15] relates to A549. The series can be described thus: Induction of apoptosis in human A549 cells assessed as hypodiploid DNA content at 50 nM after 72 hrs by propidium iodide staining flow cytometry (reference value: 3 to 4%). The series is classed as functional.
Series [16] has as its system HCC827. The series can be described thus: Cytotoxicity against human HCC827 cells assessed as reduction in cell viability after 48 hrs by XTT assay. The class given is functional, cell-based. To be noted: HCC827, 48 h.
The test system of series [17] is A549. The series can be described thus: Cell cycle arrest in human A549 cells assessed as accumulation at G0/G1 phase at 100 nM after 24 hrs by propidium iodide staining based flow cytometry (reference value: 61%). The series is classed as functional.
Series [18] relates to A549. The series can be described thus: Induction of apoptosis in human A549 cells assessed as activation of caspase 3/7 after 48 hrs by flow cytometry. The class given is functional, cell-based.
Series [19] deals with A549. The series can be described thus: Induction of mitochondrial dysfunction in human A549 cells assessed as decrease in ratio of red to green fluorescence intensity at 100 nM after 48 hrs by JC-1 staining based flow cytometry. The class given is functional. More on the design: scale not given: the % may be the effect or the level left.
For series [20], the system named is A549. The series can be described thus: Cell cycle arrest in human A549 cells assessed as accumulation at G0/G1 phase at 50 nM after 24 hrs by propidium iodide staining based flow cytometry (reference value: 61%). The class given is functional.
Series [21] deals with Cyclin-dependent kinase 1 (Homo sapiens) (UniProt P06493). The experiment in a line: Activation of CDK1 in human A549 cells assessed as increase in CDK1 phosphorylation at Tyr15 residues at 100 nM after 24 hrs by western blot analysis. The class given is cell-based. (In general: A western blot detects proteins with antibodies after separation by electrophoresis.)
Series [22] concerns the target T1, Cyclin-dependent kinase 1/cyclin B1 (Homo sapiens) (UniProt P06493+P14635). The series can be described thus: Activation of CDK1/cyclinB1 in human A549 cells assessed as increase in cytokinesis defects at 100 nM after 24 hrs by DAPI staining based assay. The series is classed as cell-based.
Series [23] has as its system A549. The series can be described thus: Induction of mitochondrial dysfunction in human A549 cells assessed as cell population with intact mitochondrial potential at 50 nM after 48 hrs by JC-1 staining based flow cytometry (reference value: 7%). The class given is functional.
The subject of series [24] is A549. The experiment in a line: Induction of apoptosis in human A549 cells assessed as hypodiploid DNA content at 100 nM after 72 hrs by propidium iodide staining flow cytometry (reference value: 3 to 4%). The series is classed as functional.
Series [25] concerns A549. The experiment in a line: Induction of apoptosis in human A549 cells assessed as activation of caspase 3/7 at 50 nM after 48 hrs using Z-DEVD-R110 as substrate by flow cytometry (reference value: 9%). The series is classed as functional.
The subject of series [26] is CAL-12T. The experiment in a line: Induction of apoptosis in human CAL-12T cells assessed as increase in hypodiploid DNA content at 50 to 100 nM after 72 hrs by propidium iodide staining flow cytometry. The class given is functional, cell-based.
For another series, the system named is PBMC. The series can be described thus: Cytotoxicity against human PBMC cells assessed as reduction in cell viability after 48 hrs by XTT assay. The class given is cell-based.
Series [27] deals with A549. The series can be described thus: Induction of intracellular ROS production in human A549 cells at 50 nM after 48 hrs by H2DCFDA staining based flow cytometry relative to control. The class given is functional.
Series [28] has as its system A549. The experiment in a line: Induction of mitochondrial dysfunction in human A549 cells assessed as cell population with mitochondrial potential loss at 50 nM after 48 hrs by JC-1 staining based flow cytometry (reference value: 7%). The class given is functional.
Series [29] relates to A549. The series can be described thus: Cell cycle arrest in human A549 cells assessed as accumulation at G2/M phase after 24 hrs by propidium iodide staining based flow cytometry. The series is classed as functional.
The test system of series [30] is HCC827. The experiment in a line: Cell cycle arrest in human HCC827 cells at 50 to 100 nM after 24 hrs by propidium iodide staining based flow cytometry. The series is classed as functional.
Series [31] relates to A549. The series can be described thus: Induction of mitotic catastrophe in human A549 cells assessed as population of cells showing increase in size at 100 nM after 24 hrs by flow cytometry (reference value: 5.7%). The series is classed as functional.
The test system of series [32] is A549. The experiment in a line: Cell cycle arrest in human A549 cells assessed as accumulation at G2/M phase at 50 nM after 24 hrs by propidium iodide staining based flow cytometry (reference value: 18%). The series is classed as functional.
Series [33] addresses T1, Cyclin-dependent kinase 1/cyclin B1 (Homo sapiens). The experiment in a line: Activation of CDK1/cyclinB1 in human A549 cells at 100 nM after 24 hrs by western blot analysis. The series is classed as cell-based.
The test system of series [34] is CAL-12T. The series can be described thus: Cytotoxicity against human CAL-12T cells assessed as reduction in cell viability after 48 hrs by XTT assay. The class given is functional, cell-based.
The subject of series [35] is HCC827. The experiment in a line: Induction of apoptosis in human HCC827 cells assessed as increase in hypodiploid DNA content at 50 to 100 nM after 72 hrs by propidium iodide staining flow cytometry. The series is classed as functional, cell-based.
The target of series [36] is T1, Cyclin-dependent kinase 1/cyclin B1 (Homo sapiens). The experiment in a line: Activation of CDK1/cyclinB1 in human A549 cells at 50 to 100 nM after 12 hrs by western blot analysis. The class given is cell-based.
Series [37] has as its system A549. The experiment in a line: Induction of mitochondrial dysfunction in human A549 cells assessed as decrease in ratio of red to green fluorescence intensity at 50 nM after 48 hrs by JC-1 staining based flow cytometry. The class given is functional. More on the design: scale not given: the % may be the effect or the level left.

SMILES strings stand for the structures. Activity calls are given as the source filed them. The rule behind the calls is not given here.

T1 sequence (P06493 whole entry, looked up): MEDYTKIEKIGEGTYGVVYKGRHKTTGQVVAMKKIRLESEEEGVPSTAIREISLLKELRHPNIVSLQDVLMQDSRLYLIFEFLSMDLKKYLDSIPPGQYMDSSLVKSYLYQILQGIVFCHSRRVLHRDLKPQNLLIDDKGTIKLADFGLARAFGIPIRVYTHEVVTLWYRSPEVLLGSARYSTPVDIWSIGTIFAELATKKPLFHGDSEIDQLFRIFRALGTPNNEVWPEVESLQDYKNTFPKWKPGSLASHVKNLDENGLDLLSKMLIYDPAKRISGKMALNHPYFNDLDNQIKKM
T1 sequence (P14635 whole entry, looked up): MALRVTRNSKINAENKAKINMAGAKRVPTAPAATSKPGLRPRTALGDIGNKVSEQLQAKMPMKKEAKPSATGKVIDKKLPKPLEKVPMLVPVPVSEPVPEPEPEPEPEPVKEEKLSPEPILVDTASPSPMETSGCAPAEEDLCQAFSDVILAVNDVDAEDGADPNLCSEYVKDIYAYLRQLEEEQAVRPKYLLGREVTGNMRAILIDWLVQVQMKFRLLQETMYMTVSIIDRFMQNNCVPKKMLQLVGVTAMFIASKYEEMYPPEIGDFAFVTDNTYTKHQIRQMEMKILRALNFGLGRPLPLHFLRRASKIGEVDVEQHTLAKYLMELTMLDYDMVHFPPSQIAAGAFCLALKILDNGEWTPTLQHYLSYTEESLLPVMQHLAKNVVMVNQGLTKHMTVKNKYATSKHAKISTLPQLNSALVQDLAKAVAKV
Sequence of Cyclin-dependent kinase 1 (Homo sapiens) (P06493 whole entry, looked up): as the sequence (P06493 whole entry, looked up) above

Take `COc1cccc2c1C(=O)c1c(O)c3c(c(O)c1C2=O)C[C@@](O)(C(=O)CO)C[C@@H]3O[C@H]1C[C@H](N)[C@H](O)[C@H](C)O1` [DOXORUBICIN]: the Activity in the series with A549 [1] is 8.2%; in the series on A549 [2], 12.4%.
For orientation: IC50 means the concentration needed to halve the response being measured. Consider `CO[C@H]1[C@H](O)[C@H](O[C@@H]2C[C@H]3CC[C@@H]4[C@H](CC[C@]5(C)[C@@H](C6=CC(=O)OC6)CC[C@]45O)[C@@]3(C)[C@H](O)C2)O[C@@H](C)[C@@H]1O`, for which the Activity was 3% in the series on A549 [3]; 43% in the series with A549 [6]; 9% in the series on A549 [1]; 65% in the series with A549 [7]; 13.9% with A549 [2]; 13 - 17% in the series on A549 [15]. In addition, the Activity in the series with A549 [17] is 31%; in the series with A549 [18], “Dose-dependent effect”; in the series on A549 [19], 40%; with A549 [20], 50%; in [22], 34.3%; with A549 [23], 9%. For the same compound, the Activity with A549 [24] was 51 - 55%; in the series with A549 [25] it was 38%; in the series on PBMC, “Non-Toxic”; in the series with A549 [28], 8.8%; with A549 [29], “Dose-dependent effect”; in the series with A549 [31], 29.8%. The values for the Activity with A549 [32] and in the series with A549 [37] were 29% and 20%, respectively. Moreover, the “fold change (FC)” value is listed as 2.8 in the series with A549 [4] and 1.5 in the series on A549 [27]. The outcome (in the series on A549 [5]; in the series with A549 [9]; in the series on CAL-12T [11]; in the series with A549 [14]; in series [21]; in the series with CAL-12T [26]) was Active. Besides, the outcome (in [33]; in the series with HCC827 [35]; in [36]) was Active. The IC50 with MRC5 was greater than 1 µM; in the series on A549 [8] it was 0.068 µM; with A549 [10], 0.095 µM; in the series with MDA-MB-231 [12] it was 1.5 µM; in the series on MDA-MB-231 [13], 4.2 µM; in the series on HCC827 [16], 0.701 µM. Further, the 50% inhibitory concentration (IC50) in the series with CAL-12T [34] stood at 0.161 µM. Also, the result with HCC827 [30] was inactive.
